From ChEMBL document CHEMBL1132366, “Conceptually new sulfone analogues of the hormone 1alpha, 25-dihydroxyvitamin D(3): synthesis and preliminary biological evaluation” (J Med Chem, 1999) come the findings set out here.

For experiment [1], the target named is T1, Vitamin D3 receptor (Rattus norvegicus) (UniProt P13053).
T1 sequence (whole entry): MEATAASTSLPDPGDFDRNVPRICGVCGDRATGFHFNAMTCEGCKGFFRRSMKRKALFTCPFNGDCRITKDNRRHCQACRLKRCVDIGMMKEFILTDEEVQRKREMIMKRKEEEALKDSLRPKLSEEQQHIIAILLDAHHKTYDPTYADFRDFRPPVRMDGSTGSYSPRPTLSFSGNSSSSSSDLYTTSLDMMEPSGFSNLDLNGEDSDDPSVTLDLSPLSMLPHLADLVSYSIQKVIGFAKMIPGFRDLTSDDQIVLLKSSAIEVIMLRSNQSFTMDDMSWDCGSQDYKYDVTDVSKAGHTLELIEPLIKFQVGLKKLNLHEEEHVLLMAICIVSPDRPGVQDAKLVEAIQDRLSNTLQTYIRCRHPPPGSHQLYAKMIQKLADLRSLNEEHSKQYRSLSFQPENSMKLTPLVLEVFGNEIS
As to the kind of experiment: Binding affinity for vitamin D3 receptor compared to 1,25D3 (100%).

In experiment [2] the target is T1, Vitamin D3 receptor (Rattus norvegicus). As to the kind of experiment: Vitamin D3 receptor-mediated transcriptional potency in rat osteosarcoma ROS 17/2.8 cells.

Consider `C=C1/C(=C/C=C2/CCC[C@]3(C)C([C@H](C)C/C=C(/F)S(=O)(=O)C(C)(C)C)=CC[C@@H]23)CC(O)CC1O` (some centres not stated), for which the Affinity in experiment [1] turned out to be 4%. This molecule also came in with an ED50 in experiment [2] of 4 nM.
For `C=C1/C(=C/C=C2/CCC[C@]3(C)C([C@H](C)CCS(=O)(=O)C(C)(C)C)=CC[C@@H]23)C[C@@H](O)C[C@@H]1O`, in experiment [1], the Affinity was found to be 21%. Besides, the ED50 in experiment [2] was determined as 0.8 nM.
`C=C1C(=CC=C2CCC[C@]3(C)[C@@H]([C@H](C)CCCC(C)(C)O)CC[C@@H]23)C[C@@H](O)C[C@@H]1O` had an ED50 in experiment [2] of 0.35 nM.
The molecule `C=C1/C(=C/C=C2/CCC[C@]3(C)C([C@H](C)CCC(F)(F)S(=O)(=O)C(C)(C)C)=CC[C@@H]23)C[C@@H](O)C[C@@H]1O` came in with an Affinity in experiment [1] of 7.9%. In experiment [2], the ED50 was found to be 0.65 nM.
